Results reported in patent US11318110B2, “Pharmaceutical composition for reducing local fat and uses thereof” (Caliway Biopharmaceuticals Co., Ltd., priority 2015, dated 2022).

Tests used:
[1] = tested on: rat somatic cells except adipocytes; assay: Cytotoxicity test by MTT assay (Experiment 10-1); format: cell-based; conditions: 50 ppm
Text: Determine if 50 ppm of caffeine and L-carnitine have toxicity to cells other than adipocytes by MTT assay. Only if the drug is deemed non-toxic will lipolysis test be proceeded.

[2] = tested on: mature adipocytes (differentiated 3T3-L1 cells); assay: Apoptosis of mature adipocytes, annexin V/PI flow cytometry (Experiment 10-2); format: cell-based; conditions: 50 ppm total drug (complexes: 20 ppm curcumin + 30 ppm hydrophilic drug), 24 hours; sterile water control 0.8±0.4%
Text: The curcumin cell culture medium: same as the preparation of the curcumin cell culture medium in Experiment 8-2. […] Caffeine (purchased from Sigma-Aldrich) was mixed with an appropriate amount of sterile water to obtain a caffeine solution. The caffeine solution was mixed with a cell culture medium to prepare the caffeine cell culture medium containing 50 ppm of caffeine. Wherein, the volume ratio of the caffeine cell culture medium and the cell culture medium was 1:1000. The L-carnitine cell culture medium: L-carnitine (purchased from Sigma-Aldrich) was mixed with an appropriate amount of sterile water to obtain a L-carnitine solution. The L-carnitine solution was mixed with a cell culture medium to prepare the caffeine cell culture medium containing 50 ppm of L-carnitine. Wherein, the volume ratio of the L-carnitine cell culture medium and the cell culture medium was 1:1000. The curcumin-caffeine complex cell culture medium: Curcumin and caffeine were mixed with an appropriate amount of sterile water to prepare a curcumin-caffeine complex solution. […] Wherein, the concentration of curcumin was 20 ppm, the concentration of caffeine was 30 ppm, and the volume ratio of the curcumin-caffeine complex solution and the cell culture medium was 1:1000. The curcumin-L-carnitine complex cell culture medium: Curcumin and L-carnitine were mixed with an appropriate amount of sterile water to prepare a curcumin-L-carnitine complex solution. […] Wherein, the concentration of curcumin was 20 ppm, the concentration of L-carnitine was 30 ppm, and the volume ratio of the curcumin-L-carnitine complex solution and the cell culture medium was 1:1000. […] Annexin V protein (purchased from eBioscience) and propidium iodide (PI; purchased from eBioscience) were mixed with the cells in each group for a period of time, and then the percentage of cells labeled by annexin V protein and PI in each group was analyzed by flow cytometry to assess the percentage of mature adipocytes undergoing apoptosis.

[3] = tested on: lower inguinal subcutaneous fat of rats; assay: Administered dosage of curcumin-resveratrol complex composition, localized subcutaneous fat of rats (Experiment 7-5); format: in vivo; conditions: 0.04 μg/kg injected on days 1-4; 14-day experiment; high-fat diet control 100±15.2%
Protocol: LIPO-202 is a local lipolysis injection formulation currently undergoing clinical trials, and its main ingredient is salmeterol xinafonate. • (i) 1 mg of salmeterol xinafonate (purchased from Sigma-Aldrich) was mixed with an appropriate amount of methanol to a total volume of 1 mL to obtain a 1 mg/mL stock solution. • (ii) The stock solution was 10-fold serial diluted with sterile water to prepare a salmeterol xinafonate solution of a final concentration of 0.01 μg/mL, which is the LIPO-202 solution used in this experiment. same as the preparation of the curcumin-resveratrol complex solution comprising ELP described in Experiment 7-2. […] The rats were fed in the same manner described in Experiment 2. […] The LIPO-202 solution was injected to the lower inguinal subcutaneous fat layer of rats in the LIPO-202 group. […] The 1 mg/mL complex formula group: […] The 5 mg/mL complex formula group: The curcumin-resveratrol complex pharmaceutical composition was injected to the lower inguinal subcutaneous fat layer of rats in the 5 mg/mL complex formula group. […] The 10 mg/mL complex formula group: […] The 20 mg/mL complex formula group: […] Rats were injected once a day on day 1, 2, 3, and 4 of the experiment. The rats were fed with high-fat diet for the entire duration of the experiment. The experiment lasted for 14 days, and the rats were euthanized on day 15 by CO2.

[4] = tested on: mature adipocytes (differentiated 3T3-L1 cells); assay: Apoptosis of mature adipocytes, annexin V/PI flow cytometry (Experiment 8-2); format: cell-based; conditions: 50 ppm total drug (complexes: 20 ppm curcumin + 30 ppm second drug), 24 hours; DMSO control 0.8±0.2%
Text: The curcumin cell culture medium: curcumin was mixed with an appropriate amount of 0.5% DMSO solution to obtain a curcumin solution. The curcumin solution was mixed with a cell culture medium (product name: Dulbecco's Modified Eagle Medium, purchased from Gibco) to prepare the curcumin cell culture medium containing 50 ppm of curcumin, wherein, the volume ratio between the curcumin solution and the cell culture medium was 1:1000. The puerarin cell culture medium: puerarin (purchased from Sigma-Aldrich) was mixed with an appropriate amount of 0.5% DMSO solution to obtain a puerarin solution. The puerarin solution was mixed with a cell culture medium to prepare the puerarin cell culture medium containing 50 ppm of puerarin, wherein, the volume ratio between the puerarin solution and the cell culture medium is 1:1000. The quercetin cell culture medium: quercetin (purchased from Sigma-Aldrich) was mixed with an appropriate amount of 0.5% DMSO solution to obtain a quercetin solution. The quercetin solution was mixed with a cell culture medium to prepare the quercetin cell culture medium containing 50 ppm of quercetin, wherein, the volume ratio between the quercetin solution and the cell culture medium was 1:1000. The synephrine cell culture medium: synephrine (purchased from Sigma-Aldrich) was mixed with an appropriate amount of 0.5% DMSO solution to obtain a synephrine solution. The synephrine solution was mixed with a cell culture medium to prepare the synephrine cell culture medium containing 50 ppm of synephrine, wherein, the volume ratio between the synephrine solution and the cell culture medium was 1:1000. The curcumin-puerarin complex cell culture medium: curcumin and puerarin were mixed with an appropriate amount of 0.5% DMSO solution to obtain a curcumin-puerarin complex solution. […] The curcumin-quercetin complex cell culture medium: curcumin and quercetin were mixed with an appropriate amount of 0.5% DMSO solution to obtain a curcumin-quercetin complex solution. […] Experimental procedure to determine the lipolysis efficacy on mature adipocytes The adipocyte precursors 3T3-L1 cells (purchased from the Food Industry Research and Development Institute, Taiwan; abbreviated as BCRC) were seeded in 12-well plates, such that each well contained 1×10^5 cells. […] Annexin V protein (purchased from eBioscience) and propidium iodide (PI; purchased from eBioscience) were mixed with the cells in each group for a period of time, and then the percentage of cells labeled by annexin V protein and PI in each group was analyzed by flow cytometry to assess the percentage of mature adipocytes undergoing apoptosis. […] The data were presented as mean±SD and analyzed by one-way ANOVA. […]

[5] = Dosing frequency of curcumin-resveratrol complex composition, body weight gain of rats (Experiment 7-4); format: in vivo; conditions: 10.3 mg/kg on days 1, 3, 5 (total 30.9 mg/kg); control 100.0±11.6%
Protocol: (§1) Preparation of the sodium deoxycholate solution: An appropriate amount of sodium deoxycholate was mixed with sterile water for injection to make the concentration of sodium deoxycholate 2.575 mg/mL. The solution was mixed well to obtain the sodium deoxycholate solution. Wherein, sodium deoxycholate (purchased from Sigma-Aldrich, cat #D6750) is the main ingredient of the local lipolysis injection formulation ATX-101 (brand name: KYBELLA®) in the market.
(§2) Preparation of the curcumin-resveratrol complex pharmaceutical composition: same as the preparation of the curcumin-resveratrol complex solution comprising ELP described in Experiment 7-2. Wherein, the total concentration of curcumin and resveratrol was 5 mg/mL, and the ratio of curcumin to resveratrol was 4:1.
(§3) The rats were randomly assigned into 4 groups, which were a high-fat diet control group, a sodium deoxycholate group, a high-dosing frequency curcumin-resveratrol group (abbreviated as high-dosing frequency group in this experiment), and a low-dosing frequency curcumin-resveratrol group (abbreviated as low-dosing frequency group in this experiment). The rats were fed in the same manner described in Experiment 2.
(§4) The sodium deoxycholate group: The sodium deoxycholate solution was injected to the lower inguinal subcutaneous fat layer of rats in the sodium deoxycholate group. […]

[6] = tested on: lower inguinal subcutaneous fat of rats; assay: Dosing frequency of curcumin-resveratrol complex composition, localized subcutaneous fat of rats (Experiment 7-4); format: in vivo; conditions: 10.3 mg/kg on days 1, 3, 5 (total 30.9 mg/kg); 20-day experiment; control 100.0±22.6%
Protocol: as §1, §2, §3, §4

[7] = tested on: lower inguinal subcutaneous fat of rats; assay: Dosing frequency of curcumin-green tea extract complex composition, localized subcutaneous fat of rats (Experiment 9-2); format: in vivo; conditions: 10.3 mg/kg on days 1, 3, 5 (total 30.9 mg/kg); 20-day experiment; control 100.0±22.6%
Protocol: (§5) Preparation of the sodium deoxycholate solution: same as the preparation of the sodium deoxycholate solution in Experiment 7-4.
(§6) Preparation of the curcumin-green tea extract complex pharmaceutical composition: 0.8 g of curcumin was mixed with 150˜200 mL of dichloromethane and stirred at 150˜500 rpm to completely dissolve curcumin. 40 g of KOLLIPHOR® ELP (also known as CREMOPHOR® ELP, polyoxyl 35 castor oil, abbreviated as ELP) was added and stirred at 100˜300 rpm to volatilize dichloromethane. Once dichloromethane volatilized completely, normal saline for injection was slowly added to a total volume of 200 mL. Wherein, the normal saline for injection comprised 0.2 g of green tea extract. The solution was mixed well to obtain the curcumin-green tea extract complex solution comprising ELP. Said curcumin-green tea extract complex solution comprising ELP comprised drug-containing micelles, the total concentration of curcumin and green tea was 5 mg/mL, and the weight ratio of curcumin and green tea extract was 4:1
as §3, with “curcumin-green tea extract” for “curcumin-resveratrol”, “group). […]” for “group in this experiment). The rats were fed in the same manner described in Experiment 2.”

[8] = Dosing frequency of curcumin-green tea extract complex composition, body weight gain of rats (Experiment 9-2); format: in vivo; conditions: 10.3 mg/kg on days 1, 3, 5 (total 30.9 mg/kg); control 100.0±11.6%
Protocol: as §5, §6
as §3, with “curcumin-green tea extract” for “curcumin-resveratrol”, “group). […]” for “group in this experiment). The rats were fed in the same manner described in Experiment 2.”

C[N+](C)(C)C[C@H](O)CC(=O)[O-] [L-carnitine]
cytotoxicity (MTT assay) [1]: not cytotoxic | percentage of apoptotic cells [2]: 1.7±0.5%

OCc1cc(C(O)CNCCCCCCOCCCCc2ccccc2)ccc1O (centres unmarked) [LIPO-202, salmeterol xinafonate]
relative weight of the lower inguinal subcutaneous fat [3]: 97.8±12.8%

Cn1c(=O)c2c(ncn2C)n(C)c1=O [caffeine]
cytotoxicity (MTT assay) [1]: not cytotoxic | percentage of apoptotic cells [2]: 2.0±1.7%

COc1cc(/C=C/C(=O)CC(=O)/C=C/c2ccc(O)c(OC)c2)ccc1O [curcumin]
percentage of apoptotic cells [4]: 78.4±5.4% | percentage of apoptotic cells [2]: 78.4±5.4%

O=c1c(-c2ccc(O)cc2)coc2c([C@@H]3O[C@H](CO)[C@@H](O)[C@H](O)[C@H]3O)c(O)ccc12 [puerarin]
percentage of apoptotic cells [4]: 2.0±1.6%

O=c1c(O)c(-c2ccc(O)c(O)c2)oc2cc(O)cc(O)c12 [quercetin]
percentage of apoptotic cells [4]: 1.8±0.6%

CNCC(O)c1ccc(O)cc1 (centres unmarked) [synephrine]
percentage of apoptotic cells [4]: 0.9±0.2%

sodium deoxycholate
relative weight gain [5]: 100.2±12.6% | relative weight of the lower inguinal subcutaneous fat [6]: 88.8±16.7% | relative weight of the lower inguinal subcutaneous fat [7]: 88.8±16.7% | relative weight gain [8]: 100.2±12.6%
